# Assay results from US20230293420A1, “COSMETIC OR DERMOPHARMACEUTICAL COMPOSITION, PEPTIDE AND USE IN THE REDUCTION AND ELIMINATION OF WRINKLES AND EXPRESSION LINES” (NANOCEUTICALS LTDA, priority 2022, published 2023).
# Where a SMILES comes first, the peptide text is derived from it.
# Key:
# [1] = system: Balb/c 3T3 clone 31 cells; experiment: In vitro study of neutral red cytotoxicity; type: cell-based; details: 24 hours incubation
# Method: Evaluate the in vitro cytotoxic potential of the Giovian peptide (SEQ ID No. 1) in culture of Balb/c 3T3 clone 31 cells.
# In this study, Balb.c 3T3 clone 31 cells were used, obtained from the supplier Banco de Células do Rio de Janeiro, batch 001242, maintained in cultivation with DMEM (Dulbecco's Modified Eagle's Medium) with the addition of supplements, in an oven at 37° C. and 5% of CO2, and were manipulated inside the laminar flow hood. In passage 04 after thawing, the cells were distributed in 96-well plates maintained in culture under the same conditions described.
# The solutions containing the control, positive control and sample groups were applied to the cell culture, 100 μL per well in quadruplicate for each group, followed by incubation in an oven at 37° C. and 5% CO2 for 24 hours. After washing, cell viability was analyzed with the neutral red indicator, 100 μL per well.
# The results were evaluated using Microsoft Excel software. The control group was normalized to 100% and the percentage of cell viability in the sample and in the positive control was calculated in relation to the control. Samples are considered cytotoxic when they have 30% or more reduction in cell viability.
# myoblast cells = type: cell-based
# [2] = Appearance of solubilized sample in cell culture medium; type: physicochemical; details: 1 mg/mL in cell culture medium
compound,measurement,setting,value
CC[C@H](C)[C@H](NC(=O)[C@H](CC(C)C)NC(=O)[C@H](CCCCN)NC(=O)CNC(=O)[C@H](CC(C)C)NC(=O)[C@H](CCCCN)NC(=O)[C@H](CC(C)C)NC(=O)[C@H](Cc1c[nH]c2ccccc12)NC(=O)[C@H](Cc1ccccc1)NC(=O)[C@@H](NC(=O)[C@H](CCCCN)NC(=O)[C@H](CCCNC(=N)N)NC(=O)[C@H](Cc1ccccc1)NC(=O)[C@@H]1CCCN1C(=O)[C@@H](NC(=O)[C@H](Cc1ccccc1)NC(=O)CNC(=O)[C@@H]1CCCN1C(=O)[C@@H]1CCCN1C(=O)[C@@H](N)CCCNC(=N)N)[C@@H](C)O)[C@@H](C)CC)C(=O)N[C@@H](CC(=O)O)C(=O)N[C@@H](C)C(=O)N[C@@H](CC(C)C)C(N)=O [Giovian] (H-RPPGFTPFRKIFWLKLGKLIDAL-NH2),concentrations at which the sample did not present cytotoxic effect (cytotoxic = 30% or more reduction in cell viability),[1],lower than 0.0375 mg/ml
same,"cell relaxation (reduction of cell contractility, collagen disc volume)",myoblast cells,increase in cell relaxation
same,appearance of solubilized sample,[2],fully solubilized
